From publication PMC6411751, “Use of machine learning to identify novel, behaviorally active antagonists of the insect odorant receptor co-receptor (Orco) subunit” (Scientific Reports, 2019)
Read-outs that look alike come from different tables or passages of the source.

Tests used:
[1] = tested on: Dmel\Or71a; design: method as in ref 1 Münch, D., Galizia, C.G. DoOR 2.0 (2016); conditions: ref 1 Münch, D., Galizia, C.G. DoOR 2.0 (2016); cited from earlier work
[2] = tested on: Dmel\Or83c; design: method as in ref 1 Münch, D., Galizia, C.G. DoOR 2.0 (2016); conditions: ref 1 Münch, D., Galizia, C.G. DoOR 2.0 (2016); cited from earlier work
[3] = tested on: D. melanogaster larvae; experiment: Larval chemotaxis assay (attraction to ethyl acetate); format: in vivo, Drosophila melanogaster; conditions: 10 µL of EA diluted 1:10^−6 in mineral oil vs mineral oil alone; mean ± SEM
Protocol: We have previously provided a detailed description of these methods. Briefly, Canton-S (CS) flies were used as wild type (wt). The experimental chamber was a 100 × 15 mm polystyrene Petri dish (VWR) with 20 mL of 1.1% agarose coating the bottom. In this assay, 50 third-instar larvae were placed inside a “starting circle” at the center of the plate (the circle was drawn on the outside bottom of the plate). A line was also drawn that divided the plate in half. Small filter paper discs (d = 6 mm, Whatman Cellulose Filter Paper, # 1030 023) were placed on opposite sides of the plate (see Fig. 8A). Onto each filter paper disc was placed 10 μL of solution, containing either vehicle of dilution (mineral oil), odorant attractant (EA, diluted in mineral oil) or an Orco antagonist compound (diluted in mineral oil). The sides of the plate on which the compounds or vehicle were placed were alternated from experiment to experiment.
In order to test Orco antagonists for the ability to affect the chemotaxis assay, a large (d = 9 cm) filter paper (Whatman Filter Paper # D00161-S) was adhered with double-sided tape to the inside of the Petri dish lid. This allowed the larvae to be exposed to Orco antagonists in an airborne context. For light repulsion experiments, we used a Zeiss CL6000 LED light source at 76% intensity. Following the 5 min migratory period, plates were photographed, coded and then blind counted. Any larvae still within the starting circle or touching the center line were excluded from the analysis. A Response Index (RI) was calculated as RI = (S − C)/(S + C), where S is the number of larvae on the stimulus (EA) side and C is the number of larvae on the control (mineral oil) side. RI = 1 would indicate complete attraction, RI = −1 would indicate complete repulsion, and RI = 0 would indicate no preference. Statistical significance was assessed using a one-way analysis of the variance followed by Dunnett’s’s post-test.

[4] = molecular target: T1, Agam\Orco (Anopheles gambiae, UniProt Q7QCC7); experiment: cell-based; format: cell-based
T1 construct: expressed in transfected cells; host or cells: Xenopus laevis oocytes injected with capped cRNA (plasmid pT7TS, gift of L. Zwiebel)
T1 sequence (Q7QCC7 1-478): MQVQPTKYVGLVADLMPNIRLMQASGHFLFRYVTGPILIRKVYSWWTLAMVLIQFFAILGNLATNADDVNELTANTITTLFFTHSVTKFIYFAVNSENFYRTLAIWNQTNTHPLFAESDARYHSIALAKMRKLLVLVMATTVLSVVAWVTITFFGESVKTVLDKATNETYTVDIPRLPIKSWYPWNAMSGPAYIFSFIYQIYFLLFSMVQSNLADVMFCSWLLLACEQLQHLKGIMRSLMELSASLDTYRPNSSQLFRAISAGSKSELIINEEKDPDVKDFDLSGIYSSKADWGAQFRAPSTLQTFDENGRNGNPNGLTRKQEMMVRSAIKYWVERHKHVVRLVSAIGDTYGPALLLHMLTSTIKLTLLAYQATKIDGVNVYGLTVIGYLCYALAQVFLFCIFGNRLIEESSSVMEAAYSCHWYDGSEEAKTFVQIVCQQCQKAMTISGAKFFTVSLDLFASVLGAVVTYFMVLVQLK
Protocol: A 2 hr incubation with collagenase B (Roche) was used to remove follicle cells from oocytes. Capped cRNA for Agam\Orco was synthesized using mMessage mMachine kits (Thermo Fisher Scientific). 25 ng of cRNA was injected into stage V–VI oocytes, followed by a 2–5 day incubation at 18 °C in Barth’s saline (in mM: 88 NaCl, 1 KCl, 2.4 NaHCO3, 0.3 CaNO3, 0.41 CaCl2, 0.82 MgSO4, 15 HEPES, pH 7.4, and 0.05 g/L tetracycline, 0.05 g/L ciprofloxacin, 0.1 g/L amikacin) prior to electrophysiological recordings.
(§1) An automated parallel electrophysiology system (OpusExpress 6000 A, Molecular Devices) was used to record Orco agonist (OLC12) or odorant induced currents under two-electrode voltage clamp. Oocytes were perfused with ND96 (in mM: 96 NaCl, 2 KCl, 1 CaCl2, 1 MgCl2, 5 HEPES, pH 7.4). DMSO was used to prepare 1 M or 100 mM stock solutions of test compounds, which were then diluted in ND96 on the day of the experiment. Compounds were applied at a flow rate of 1.0 mL/min, with extensive washing in ND96 at 4.6 mL/min between applications. Micropipettes with resistances of 0.2–2.0 MΩ were filled with 3 M KCl. The holding potential was −70 mV. Current responses were filtered (4-pole, Bessel, low pass) at 20 Hz (−3 db) and sampled at 100 Hz. OpusXpress 1.1 software (Molecular Devices) was used to capture and store current responses.
To measure antagonist activity at Orco, Agam\Orco was activated by the Orco agonist OLC12[34]. […] The current response to OLC12 in the presence of antagonist candidate was compared to the mean of the preceding two responses to OLC12 alone and presented as a percentage[34],[35]. This value was then normalized to the value obtained when the assay was run in the absence of antagonist candidate (sham).
During development of the training panel (Fig. 2, Tables S1 and S2), all compounds not previously known to be Orco antagonists were tested at a concentration of 3 mM. […] Concentration-inhibition curves were constructed for all compounds eliciting >20 percent inhibition at 3 mM. The same concentration and criteria were used during screening of predicted actives (Fig. 4D) and predicted inactives (Fig. 5C).
Clampfit 9.1 software (Molecular Devices) was used to perform initial analysis of electrophysiological data. Prism 7 (Graphpad) was used for curve fitting. Concentration-inhibition data were fit to the equation: I = Imax/(1 + (X/IC50)^n) where I represents the current response at a given concentration of inhibitor, X; Imax is the maximal response in the absence of inhibitor; IC50 is the concentration of inhibitor present that allows a half maximal response from OLC12; n is the apparent Hill coefficient.

[5] = tested on: Dmel\Or67a; design: method as in ref 1 Münch, D., Galizia, C.G. DoOR 2.0 (2016); conditions: ref 1 Münch, D., Galizia, C.G. DoOR 2.0 (2016); cited from earlier work
[6] = tested on: Dmel\Or69a; design: method as in ref 1 Münch, D., Galizia, C.G. DoOR 2.0 (2016); conditions: ref 1 Münch, D., Galizia, C.G. DoOR 2.0 (2016); cited from earlier work
[7] = tested on: Agam\ORs; design: method as in ref 2-5 (a number printed in a supplementary file, which may have a reference list of its own: not looked up in the article's list); conditions: cited from earlier work
[8] = molecular target: T2, Dmel\Or35a + Dmel\Orco (Drosophila melanogaster, UniProt Q9VNB5); experiment: Inhibition of heteromeric OR in oocytes (hexanol or OLC12 activation); format: cell-based; conditions: Orco agonist activation of Dmel\Or35a + Dmel\Orco
T2 construct: expressed in transfected cells; host or cells: Xenopus laevis oocytes
T2 sequence (Q9VNB5 1-486): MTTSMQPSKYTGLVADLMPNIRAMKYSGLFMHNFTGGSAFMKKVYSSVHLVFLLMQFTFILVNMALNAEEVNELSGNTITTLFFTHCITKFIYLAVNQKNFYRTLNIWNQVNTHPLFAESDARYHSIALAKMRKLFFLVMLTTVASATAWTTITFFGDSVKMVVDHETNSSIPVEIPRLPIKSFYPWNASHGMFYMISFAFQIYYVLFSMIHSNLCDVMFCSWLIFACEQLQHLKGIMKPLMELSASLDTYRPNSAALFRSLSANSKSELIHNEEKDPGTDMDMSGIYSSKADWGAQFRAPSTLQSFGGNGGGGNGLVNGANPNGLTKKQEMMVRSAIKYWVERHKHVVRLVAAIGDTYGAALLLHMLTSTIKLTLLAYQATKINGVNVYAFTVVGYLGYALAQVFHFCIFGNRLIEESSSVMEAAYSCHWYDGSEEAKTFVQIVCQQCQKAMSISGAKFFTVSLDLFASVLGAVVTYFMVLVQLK
T2 sequence (Q9V3Q2 1-409 partner): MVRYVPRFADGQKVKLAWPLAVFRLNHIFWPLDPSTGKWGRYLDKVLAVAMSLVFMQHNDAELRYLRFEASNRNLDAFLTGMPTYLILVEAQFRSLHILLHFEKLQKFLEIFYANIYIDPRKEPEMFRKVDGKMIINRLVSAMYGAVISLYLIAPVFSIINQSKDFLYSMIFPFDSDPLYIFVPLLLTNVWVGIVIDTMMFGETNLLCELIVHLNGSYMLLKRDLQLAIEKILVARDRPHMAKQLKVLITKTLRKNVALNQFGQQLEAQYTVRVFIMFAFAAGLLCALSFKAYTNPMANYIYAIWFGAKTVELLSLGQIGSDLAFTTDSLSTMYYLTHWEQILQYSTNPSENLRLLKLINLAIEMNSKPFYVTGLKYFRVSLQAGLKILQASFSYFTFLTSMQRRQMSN
Protocol: as §1
(§2) To measure the ability of Orco antagonists to inhibit odorant activation, oocytes expressing heteromeric ORs (Orco + ORX) were exposed to a 30 sec application of odorant followed by a 20 min wash. Oocytes were then exposed to a 90 sec application of Orco antagonist, immediately followed by a 30 sec co-application of Orco antagonist and odorant. The current response to odorant in the presence of Orco antagonist was compared to the preceding response to odorant alone and represented as a percentage. This value was then normalized to the value obtained when the assay was run in the absence of antagonist (sham).
(§3) Figure S3. Effects of Orco antagonists on heteromeric ORs. […]
(§4) heteromeric complexes of odorant specificity subunits and Orco. The Orco antagonists tested were 3-isopropyl-6-methyl-catechol (3 I6 MC), a potent compound from the input training set, and two compounds id e ntified in Fig u re 4 an d Ta b le 1 : 2-tert-butyl-6-methylphenol (B MP ) and linalyl formate (LF) . These compounds were tested for antagonist activity against odorant activation of three ORs from Anopheles gambiae (Agam\Or28 + Agam\Orco, Agam\Or39 + A ga m\Orco, Agam\Or65 + A ga m\Orco), o ne O R fro m Culex quinquefasciatus, the southern house mosquito (Cq u i\Or21 + Cqui\Orco) an d on e O R f ro m Drosophila melanogaster (Dme l\Or35a + Dmel\Orco). Each OR was activated by its cognate odorant agonist applied at an approximate EC50 concentration. […]
(§5) SEM (n = 4). […] Statistical significance of the data in each panel was assessed by one-way analysis of variance followed by Dunnett’s multiple comparison test using the pre-normalized values for each antagonist compared to the values obtained in the sham recordings (*, p < 0 .0 5; **, p < 0. 01; ***, p < 0 . 00 1 ).

[9] = tested on: Cqui\Or21 + Cqui\Orco; experiment: Inhibition of heteromeric OR in oocytes (3-methylindole or OLC12 activation); format: cell-based, Culex quinquefasciatus; conditions: Orco agonist activation of Cqui\Or21 + Cqui\Orco
Protocol: as §1, §2, §3, §4, §5

[10] = tested on: Dmel\Or19a; design: method as in ref 1 Münch, D., Galizia, C.G. DoOR 2.0 (2016); conditions: ref 1 Münch, D., Galizia, C.G. DoOR 2.0 (2016); cited from earlier work
[11] = tested on: Dmel\Or92a; design: method as in ref 1 Münch, D., Galizia, C.G. DoOR 2.0 (2016); conditions: ref 1 Münch, D., Galizia, C.G. DoOR 2.0 (2016); cited from earlier work
[12] = tested on: Dmel\Or22a; design: method as in ref 1 Münch, D., Galizia, C.G. DoOR 2.0 (2016); conditions: ref 1 Münch, D., Galizia, C.G. DoOR 2.0 (2016); cited from earlier work
[13] = tested on: Dmel\Or85b; design: method as in ref 1 Münch, D., Galizia, C.G. DoOR 2.0 (2016); conditions: ref 1 Münch, D., Galizia, C.G. DoOR 2.0 (2016); cited from earlier work
[14] = Table S1, training actives, Agam\Orco activated by 30 µM OLC12, mean ± SEM (n = 3-8), read-out: IC50

C=Cc1ccc(O)cc1 [4-hydroxystyrene]
scaled response from DoOR (max = 1.0) [1]: 0.131

CC(C)=CCCC(C)=CCCC(C)=CC=O [farnesal]
scaled response from DoOR (max = 1.0) [2]: 0.046

CCOC(C)=O [ethyl acetate, reference compound]
response index (RI) [3]: 0.76 ± 0.08 | inhibition at 3000 µM ([4]; read-out: inhibition of Agam\Orco (OLC12 response) at 3 mM, 3 mM compound, 30 µM OLC12): ≤ 20%

CCOC(=O)/C=C/c1ccccc1 [ethyl-trans-cinnamate]
IC50 [4, 14]: 134 ± 16 µM | scaled response from DoOR (max = 1.0) [5]: 0.143

CCc1ccccc1O [2-ethylphenol]
scaled response from DoOR (max = 1.0) [6]: 0.356 | IC50 [4]: 261 ± 14 µM | loss of potency relative to BMP ([4]; Agam\Orco IC50 compared with BMP): 5.5 fold | activity at Agam\ORs ([7]; Or2, Or9, Or10, Or11, Or14, Or18, Or20, Or38, Or41, Or50, Or57): activation

CCn1c(SCC(=O)Nc2ccc(C(C)C)cc2)nnc1-c1ccncc1 [OLC12, 2-((4-Ethyl-5-(4-pyridinyl)-4H-1,2,4-triazole-3-yl)sulfanyl)-N-(4-isopropylphenyl)acetamide, reference compound]
approximate EC25 [8]: ~10 µM | approximate EC25 [9]: ~3 µM

O=C/C=C/c1ccccc1 [trans-cinnamaldehyde]
scaled response from DoOR (max = 1.0) [10]: 0.112 | IC50 [4]: 1870 ± 94 µM

CC(C)=CCC/C(C)=C/C=O [citral]
scaled response from DoOR (max = 1.0) [6]: 0.483 | scaled response from DoOR (max = 1.0) [11]: 0.325 | scaled response from DoOR (max = 1.0) [12]: 0.140 | IC50 [4, 14]: 452 ± 44 µM

Cc1ccc(C(C)C)cc1 [p-cymene]
scaled response from DoOR (max = 1.0) [1]: 0.063

CC(C)c1ccc(C=O)cc1 [4-isopropylbenzaldehyde]
scaled response from DoOR (max = 1.0) [10]: 0.351 | scaled response from DoOR (max = 1.0) [13]: 0.222

CC(O)CCc1ccccc1 (stereo not shown) [4-phenyl-2-butanol]
scaled response from DoOR (max = 1.0) [1]: 0.063

CC(C)=CCC[C@@H](C)CC=O [citronellal]
scaled response from DoOR (max = 1.0) [2]: 0.092 | activity at Agam\ORs (basal activity) ([7]; Or5, Or12, Or15, Or25, Or45, Or73): inhibition of basal | activity at Agam\ORs ([7]; Or30, Or31, Or48, Or50, Or75): activation
